Experiment: Inhibition of pancreatic cholesterol esterase using p-nitrophenylacetate or cholesteryl [1-14C]-oleate as substrates

Row | IC50 [µM] | Structure (SMILES)
1 | 10 | CC(C)(C)[C@H]1CC[C@H](CC(=O)C(F)(F)C(F)(F)F)CC1 [1-(4-tert-Butyl-cyclohexyl)-3,3,4,4,4-pentafluoro-butan-2-one]
2 | > 100 | CCCCCCCCCCCCC(F)(F)C(=O)C[C@H]1CC[C@]2(C)CCCC[C@H]2C1 [3,3-Difluoro-1-((2S,4aS,8aS)-4a-methyl-decahydro-naphthalen-2-yl)-pentadecan-2-one]
